Non-standard residues stand in square brackets, D forms with d. Residues, ends and D or L forms follow the SMILES beside them. PEG24 = NCCOCCOCCOCCOCCOCCOCCOCCOCCOCCOCCOCCOCCOCCOCCOCCOCCOCCOCCOCCOCCOCCOCCOCCOCCC(=O)O
Assays:
[1] = Circular dichroism, temperature ramping; format: physicochemical; settings: 6 to 94 °C, 5 mM Tris-HCl buffer, 0.1 mg/mL
Method: KL4 and PEG6KL4 peptides were dissolved in 5 mM Tris-HCl buffer at a final concentration of 0.1 mg/mL in 0.1% (v/v) DMSO. PEG12KL4 and PEG24KL4 were dissolved in 5 mM Tris-HCl buffer at a final concentration of 0.1 mg/mL without DMSO. CD spectra were acquired on a Chirascan™ Spectrometer (Applied Photophysics, Leatherhead, UK). For temperature ramping experiment, far-UV CD spectra were obtained with the peptide solution incubated from 6° C. to 94° C. Spectra were recorded from 260 to 190 nm using a 0.5 mm path length and were processed using Chirascan software where a spectrum of the peptide free solution was subtracted and Savitzky-Gorlay smoothing applied.

BEAS-2B cells = experiment: GAPDH siRNA transfection on BEAS-2B cells (Western blot); format: cell-based, human; settings: one-way ANOVA, Tukey, n.s. not significant, * p<0.05, ** p<0.01, *** p<0.001
Method: (§1) A549 cells, BEAS-2B and Calu-3 cells were seeded in six-well plates at a density of 1.6×10^5 cells per well, 2×10^5 cells per well and 3×10^5 cells per well, respectively, one to two days before transfection. The cells were transfected with peptide/siRNA complexes at 5:1 to 20:1 ratio (w/w) containing GAPDH siRNA or negative control siRNA (6 to 100 nM) in OptiMEM I reduced serum medium. Lipofectamine 2000 was used for comparison. After 5 h of incubation, the cells were washed and replaced with serum supplemented cell culture medium. At 72 h post-transfection, the cells were washed and lysed with cell lysis buffer. Western blotting assay was performed to analyze the level of GAPDH protein as previously described. The GAPDH expression was analyzed by densitometry of Western blots using ImageJ software (Version 1.52). The GAPDH expression was normalized with the expression of […]-actin of the corresponding sample. The remaining GAPDH expression was the normalized GAPDH expression of positive control divided by the normalized GAPDH expression of negative control.

Calu-3 cells = experiment: GAPDH siRNA transfection on Calu-3 cells (Western blot); format: cell-based, human; settings: one-way ANOVA, Tukey, n.s. not significant, * p<0.05, ** p<0.01, *** p<0.001
Method: as §1

[2] = Charge ratio of peptide to siRNA at 10:1 weight ratio
Text: This is partly because the uncharged PEG chains reduced the effective charge ratio between cationic KL4 and siRNA [77]. The charge ratios of KL4, PEG6KL4, PEG12KL4 and PEG24KL4 to siRNA at 10:1 weight ratio are 6.1 to 1, 5.5 to 1, 4.9 to 1 and 4.2 to 1, respectively. […] The molecular weight of the PEG used in this study, which is below 1,200 Da, is relatively low compared with others where PEG of 2,000 to 5,000 Da was often used. Therefore, PEGylated KL4 peptide/siRNA complexes remained to be positively charged, which is suitable for cellular entry. […] In addition, PEG also provides steric hindrance between the interaction of KL4 and siRNA that weakens the binding, promoting the release of siRNA from the complexes after the addition of heparin.

A549 cells = experiment: GAPDH siRNA transfection on A549 cells (Western blot); format: cell-based, human; settings: A549, 10:1 ratio, 6 to 100 nM siRNA, 72 h
Method: A549 cells were seeded in 6-well plates at a density of 1.5×10^5 cells per well one day before transfection. The cells were transfected with peptide/siRNA complexes containing 50 pmol of GAPDH siRNA or negative control siRNA per well (50 nM). The complexes were prepared in OptiMEM I reduced serum medium at 10:1, 15:1 and 20:1 ratios (w/w). Lipofectamine 2000 was used as control. The complexes were added to the cells and incubated for 4 h at 5% CO2, 37° C. before being washed with PBS. The transfection medium was removed and replaced with serum supplemented cell culture medium. At 72 h post-transfection, the cells were washed and lysed with cell lysis buffer. Western blotting assay was performed to analyze the level of GAPDH protein. The GAPDH expression was analyzed by densitometry of Western Blots using Image J software. The remaining GAPDH expression was the density of the GAPDH band of positive control (normalized with beta-actin of the corresponding sample) divided by the GAPDH band of negative control (normalized with the beta actin band of the corresponding sample).
as §1

[3] = Solubility of peptides in water; format: physicochemical
siRNA = experiment: Fluorescence displacement assay of siRNA binding and heparin release; settings: 10:1 ratio, heparin titration
Method: The siRNA binding affinity of the peptides was investigated by fluorescence displacement assay using negative control siRNA. The siRNA was added into 1× SYBR® Gold Tris-acetate-EDTA (TAE) buffer and incubated for 30 min at room temperature. The fluorescence intensity was quantified by fluorescence spectrophotometer (SpectraMax® M4, Molecular devices, LLC., CA, USA) at 495 nm excitation and 537 nm emission wavelengths. The peptides at concentration of 1 mg/mL were titrated to the siRNA/dye mixtures. The fluorescence intensity of siRNA/dye mixture in the presence of peptides was expressed as a percentage of that of the siRNA/dye mixture without peptides. The background fluorescence was subtracted from all measurements before analysis. Percentage change of fluorescence intensity was plotted against the weight ratio of peptides to siRNA upon titration. To further investigate the binding profile of the peptide/siRNA complexes, heparin was added to dissociate the complexes and release the siRNA. […] The heparin diluted in TAE buffer at concentration of 10 or 100 i.u./μL was titrated into the peptide/siRNA/dye mixture and the fluorescence intensity was measured as described above. Percentage change of fluorescence intensity was plotted against the amount of heparin upon titration. The data was fit to a four-parameter logistic sigmoidal curve and the EC50 and Hill slope were calculated.

- charge ratio of peptide to siRNA [2]: 4.2 to 1
- solubility [3]: > 2000 µg/mL
- binding affinity between peptide and siRNA (siRNA): weakest
SMILES: CC(C)C[C@H](NC(=O)[C@H](CC(C)C)NC(=O)[C@H](CC(C)C)NC(=O)[C@H](CC(C)C)NC(=O)[C@H](CCCCN)NC(=O)[C@H](CC(C)C)NC(=O)[C@H](CC(C)C)NC(=O)[C@H](CC(C)C)NC(=O)[C@H](CC(C)C)NC(=O)[C@H](CCCCN)NC(=O)[C@H](CC(C)C)NC(=O)[C@H](CC(C)C)NC(=O)[C@H](CC(C)C)NC(=O)[C@H](CC(C)C)NC(=O)[C@H](CCCCN)NC(=O)[C@H](CC(C)C)NC(=O)[C@H](CC(C)C)NC(=O)[C@H](CC(C)C)NC(=O)[C@H](CC(C)C)NC(=O)[C@H](CCCCN)NC(=O)CCOCCOCCOCCOCCOCCOCCOCCOCCOCCOCCOCCOCCOCCOCCOCCOCCOCCOCCOCCOCCOCCOCCOCCOCCN)C(=O)N[C@@H](CCCCN)C(N)=O [PEG24KL4] (H-[PEG24]KLLLLKLLLLKLLLLKLLLLK-NH2; N-terminus assumed)
- secondary structure at different temperatures (far-UV CD) [1]: adopted an alpha-helical structure at all tested temperatures
- Comparison within the same peptide prepared at different peptide to siRNA ratios (BEAS-2B cells): 5:1 vs 20:1 *
- Comparison within the same peptide prepared at different peptide to siRNA ratios (Calu-3 cells): n.s.
- siRNA transfection efficiency among the four peptides at different amounts of siRNA (A549 cells): lowest transfection efficiency

From patent US12589161B2, “PEGylated synthetic KL4 peptide, compositions and methods thereof” (THE UNIVERSITY OF HONG KONG, priority 2019, dated 2026)
